Data: US10428134B2, “Immunoglobulins and uses thereof” (JANSSEN PHARMACEUTICA NV, priority 2016, dated 2019)
Marks after values point to notes of the source that are not given here.

Tests used:
[1] = Single-dose efficacy in DIO mice: plasma FGF21; conditions: 0.3 nmol/kg s.c., 26 hours after treatment
[2] = target: T1, human GCGR (Homo sapiens, UniProt P47871); assay: human glucagon receptor cAMP assay; format: cell-based; conditions: HEK293 cells
T1 construct: expressed in transfected cells
Method: (§1) For each receptor assay, the clonal cells were seeded into 384-well plates at the appropriate densities ranging from 2000-5000 cells/per well. Compounds were diluted in HBSS supplemented with 5 mM HEPES, 0.1% BSA and 0.5 mM IBMX and added to the cells. […] Standard curves were included in each assay plate for back calculation of cAMP concentrations.

[3] = target: T2, mouse GLP1R (Mus musculus, UniProt O35659); assay: mouse GLP1 receptor cAMP assay; format: cell-based; conditions: HEK293 cells
T2 construct: expressed in transfected cells
T2 sequence (O35659 22-463): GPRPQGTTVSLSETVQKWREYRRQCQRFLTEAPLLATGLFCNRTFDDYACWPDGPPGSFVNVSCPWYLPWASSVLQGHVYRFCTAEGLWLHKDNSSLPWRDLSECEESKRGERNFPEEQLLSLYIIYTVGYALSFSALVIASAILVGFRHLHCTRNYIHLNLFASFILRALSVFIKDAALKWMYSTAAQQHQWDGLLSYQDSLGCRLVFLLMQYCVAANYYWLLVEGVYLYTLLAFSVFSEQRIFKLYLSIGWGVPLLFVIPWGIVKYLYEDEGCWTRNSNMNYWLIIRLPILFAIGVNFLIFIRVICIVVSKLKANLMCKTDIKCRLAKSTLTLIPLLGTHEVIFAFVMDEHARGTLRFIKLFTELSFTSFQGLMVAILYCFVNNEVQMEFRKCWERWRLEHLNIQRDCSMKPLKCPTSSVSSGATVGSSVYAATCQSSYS
Method: as §1

[4] = target: T3, mouse GCGR (Mus musculus, UniProt Q61606); assay: mouse glucagon receptor cAMP assay; format: cell-based; conditions: HEK293 cells
T3 construct: expressed in transfected cells
Method: as §1

[5] = Weight loss in DIO mice, chronic dosing: body weight; format: in vivo, mouse; conditions: 0.3 nmol/kg s.c. every day
Method: (§2) Compound 1 was evaluated for its ability to reduce foot intake and body weight and improve glucose homeostasis on repeat dosing in male DIO C57Bl/6 mice over a period of 8 days. Male DIO C57BL/6N mice (20 weeks of age, 14 weeks on high fat diet) were obtained from Taconic Laboratory. […] Animals were acclimated to the facility for at least one week prior to the start of the experiment.
(§3) The day prior to dosing, mice were grouped based on individual body weights. At 3:00-4:00 pm for each of the next 8 days, animals and food intake were weighed. […] After 8 days, mice are fasted for 5 hours and then given a 2 g/kg bolus of glucose orally at t=0. At t=0, 30, 60, 90, and 120 minutes post glucose challenge blood glucose is measured and at t=0, 30, and 90 minutes blood in drawn to measure plasma insulin. […] All data are presented as the mean±SEM (FIGS. 8 and 9, and Tables 5-8).

[6] = target: cynomolgus monkey GCGR; assay: cynomolgus monkey glucagon receptor cAMP assay; format: cell-based; conditions: HEK293 cells
Method: as §1

[7] = Fed blood glucose after 8 days of treatment in DIO mice; format: in vivo, mouse; conditions: 0.3 nmol/kg s.c. every day
Method: as §2, §3

[8] = Repeat dosing in DIO mice: fasting glucose, insulin, FGF21, plasma lipids; format: in vivo, mouse; conditions: 0.3 nmol/kg s.c. daily
Method: (§4) To control for the dosing frequency, all animals were dosed daily. Dosing frequency was determined on the basis of DIO mouse PK data for compound 2 and dulaglutide. Animals in the dulaglutide group received this drug daily. The vehicle-treated animals received vehicle daily. […] The day prior to initiating of dosing, animals were weighed and grouped by body weight. […].
(§5) Beginning 24-hr after the first dosing, three groups of mice were pair-fed (PF) to the 1.0, 2.0, or 4.0 nmol/kg compound 2-treated animals. The amount of food in the hopper of pair-fed mice was adjusted to match the average food consumed in the previous 24 hours by mice in the compound treatment group to which they were being matched. All PF groups were dosed daily with vehicle. On the ninth day (or Day 10 for the pair-fed groups), animals were fasted for 6 hours and body weight and fasting glucose were measured. Blood was collected for measurements of insulin, FGF21 and plasma lipids. The food intake, body weight, body composition, fasting glucose, fasting insulin, fasting FGF21, and fasting plasma lipid data are shown in tables 20-26.

[9] = Repeat dosing in DIO mice: food intake, body weight, body composition; format: in vivo, mouse; conditions: 0.3 nmol/kg s.c. daily
Method: as §4, §5

[10] = target: T4, rat GCGR (Rattus norvegicus, UniProt P30082); assay: rat glucagon receptor cAMP assay; format: cell-based; conditions: HEK293 cells
T4 construct: expressed in transfected cells
Method: as §1

[11] = OGTT after 8 days of treatment in DIO mice (glucose, insulin); format: in vivo, mouse; conditions: 0.3 nmol/kg s.c. every day
Method: as §2, §3

[12] = Single-dose efficacy in DIO mice: food intake, body weight

T4 sequence (P30082 27-485): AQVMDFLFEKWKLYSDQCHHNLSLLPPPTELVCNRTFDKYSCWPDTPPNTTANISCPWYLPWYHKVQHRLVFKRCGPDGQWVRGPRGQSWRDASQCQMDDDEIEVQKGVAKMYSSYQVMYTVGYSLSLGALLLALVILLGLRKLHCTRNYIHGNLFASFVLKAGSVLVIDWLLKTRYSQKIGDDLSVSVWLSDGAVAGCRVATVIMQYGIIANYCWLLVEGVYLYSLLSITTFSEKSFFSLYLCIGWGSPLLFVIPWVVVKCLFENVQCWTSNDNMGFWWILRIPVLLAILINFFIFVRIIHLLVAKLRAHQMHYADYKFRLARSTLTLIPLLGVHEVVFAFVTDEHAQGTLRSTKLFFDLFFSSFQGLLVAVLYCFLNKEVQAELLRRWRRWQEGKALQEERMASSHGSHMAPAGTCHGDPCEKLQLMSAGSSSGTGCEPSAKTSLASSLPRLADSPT
T3 sequence (Q61606 27-485): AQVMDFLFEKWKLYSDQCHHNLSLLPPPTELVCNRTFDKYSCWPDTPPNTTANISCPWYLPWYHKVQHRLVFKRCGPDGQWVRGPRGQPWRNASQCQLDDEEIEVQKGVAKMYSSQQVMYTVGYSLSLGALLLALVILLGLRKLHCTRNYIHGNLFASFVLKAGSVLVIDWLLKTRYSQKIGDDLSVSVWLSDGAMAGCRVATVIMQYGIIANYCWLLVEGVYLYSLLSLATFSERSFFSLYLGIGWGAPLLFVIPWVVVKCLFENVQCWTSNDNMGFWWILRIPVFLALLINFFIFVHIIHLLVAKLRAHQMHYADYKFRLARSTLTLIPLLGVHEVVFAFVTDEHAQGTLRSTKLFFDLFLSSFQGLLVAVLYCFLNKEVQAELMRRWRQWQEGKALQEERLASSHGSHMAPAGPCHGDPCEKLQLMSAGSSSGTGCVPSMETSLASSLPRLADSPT
T1 sequence (P47871 26-477): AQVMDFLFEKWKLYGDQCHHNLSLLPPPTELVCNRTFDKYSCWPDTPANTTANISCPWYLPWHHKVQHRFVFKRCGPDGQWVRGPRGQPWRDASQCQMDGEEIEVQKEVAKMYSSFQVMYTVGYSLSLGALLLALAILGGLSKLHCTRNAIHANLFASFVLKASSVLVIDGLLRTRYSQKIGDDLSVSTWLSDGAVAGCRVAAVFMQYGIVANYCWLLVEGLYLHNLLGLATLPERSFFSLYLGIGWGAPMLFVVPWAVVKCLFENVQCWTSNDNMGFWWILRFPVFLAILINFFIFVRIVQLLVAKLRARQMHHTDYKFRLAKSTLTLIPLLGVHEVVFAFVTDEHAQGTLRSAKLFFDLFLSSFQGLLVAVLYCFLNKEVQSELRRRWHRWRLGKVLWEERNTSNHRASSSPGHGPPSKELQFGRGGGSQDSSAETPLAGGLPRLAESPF

## Dulaglutide: the GLP1R agonist, dulaglutide [reference compound]
[1]
  Plasma FGF21: 0.8 ± 0.2 ng/mL
[2]
  EC50: > 100 nM
[3]
  EC50: 0.035 ± 0.002 nM
[4]
  EC50: > 100 nM
[5]; day 0
  body weight: 45.9 ± 0.6 g
[5]; day 1
  body weight: 44.1 ± 0.6 g
[5]; day 2
  body weight: 42.2 ± 0.6 g
[5]; day 3
  body weight: 40.6 ± 0.6 g
[5]; day 4
  body weight: 39.3 ± 0.6 g
[5]; day 5
  body weight: 38.1 ± 0.7 g
[5]; day 6
  body weight: 37.1 ± 0.8 g
[5]; day 7
  body weight: 36.4 ± 1.0 g
[5]; day 8
  body weight: 36.5 ± 1.1 g
[5]; day −1
  body weight: 46.3 ± 0.6 g
[6]
  EC50: > 100 nM
[7]
  fed Blood Glucose: 114 ± 13 mg/dL
[8]; after repeated dosing
  plasma Free Fatty Acids: 73.2 ± 12.0 µmol/L
  plasma Free Glycerol: 0.5 ± 0.1 mmol/L
  plasma Total cholesterol: 146.1 ± 3.3 mg/dL
  plasma Triglycerides: 24.1 ± 2.3 mg/dL
[8]; after repeated dosing (9 days)
  6 hour fasting Blood Glucose: 123 ± 5 mg/dL
  6 hour fasting Plasma Insulin: 1.4 ± 0.2 ng/mL
  6 hour fasting plasma FGF21: 0.5 ± 0.1 ng/mL
[9]; after repeated dosing
  body composition: Fat % of Body Weight: 22.8 ± 1.2%
  body composition: Fat Mass: 7.6 ± 1.1 g
  body composition: Lean % of Body Weight: 61.0 ± 1.7%
  body composition: Lean Mass: 22.1 ± 0.3 g
[9]; day 0
  daily food intake: 3.1 ± 0.2 grams
  percent body weight change: 0.0%
[9]; day 1
  daily food intake: 1.5 ± 0.2 grams
  percent body weight change: −3.7 ± 0.3%
[9]; day 2
  daily food intake: 1.3 ± 0.2 grams
  percent body weight change: −6.2 ± 0.6%
[9]; day 3
  daily food intake: 1.7 ± 0.3 grams
  percent body weight change: −7.8 ± 0.8%
[9]; day 4
  daily food intake: 1.9 ± 0.2 grams
  percent body weight change: −9.2 ± 0.8%
[9]; day 5
  daily food intake: 2.1 ± 0.2 grams
  percent body weight change: −10.1 ± 0.8%
[9]; day 6
  daily food intake: 2.2 ± 0.2 grams
  percent body weight change: −10.2 ± 0.8%
[9]; day 7
  daily food intake: 2.3 ± 0.2 grams
  percent body weight change: −10.7 ± 1.0%
[9]; day 8
  daily food intake: 2.9 ± 0.4 grams
  percent body weight change: −11.1 ± 0.9%
[9]; day 9
  daily food intake: 2.5 ± 0.2 grams
  percent body weight change: −13.1 ± 1.1%
[10]
  EC50: > 100 nM
[11]
  blood glucose Delta AUC (OGTT): 6668 ± 1846 mg/dl/120 min
  blood glucose Total AUC (OGTT): 15758 ± 1054 mg/dl/120 min
[11]; 0 min after glucose challenge
  blood glucose during OGTT: 76 ± 9 mg/dL
  insulin during OGTT: 0.6 ± 0.1 ng/mL
[11]; 30 min after glucose challenge
  blood glucose during OGTT: 151 ± 14 mg/dL
  insulin during OGTT: 1.7 ± 0.2 ng/mL
[11]; 60 min after glucose challenge
  blood glucose during OGTT: 174 ± 17 mg/dL
[11]; 90 min after glucose challenge
  blood glucose during OGTT: 104 ± 10 mg/dL
  insulin during OGTT: 0.7 ± 0.2 ng/mL
[11]; 120 min after glucose challenge
  blood glucose during OGTT: 119 ± 9 mg/dL
[12]; 0.3 nmol/kg group, 24 hours pre-dose
  food intake: 3.1 ± 0.1 grams
[12]; single s.c. dose 0.3 nmol/kg, 18 hours after treatment
  Weight Change: −4.1 ± 0.3 %
[12]; single s.c. dose 0.3 nmol/kg, 18 hours post-dose
  food intake: 1.5 ± 0.1*^ grams
